From patent US8426412B2, “2-alkynyl-6-pyridin-2-yl-pyridazinones, 2-alkynyl-6-pyridin-2-yl-dihydropyridazinones, 2-alkynyl-6-pyrimidin-2-yl-pyridazinones and 2-alkynyl-6-pyrimidin-2-yl-dihydropyridazinones and their use as fungicides” (Dow AgroSciences, LLC., priority 2008, dated 2013) come the findings set out here.

The structures appear in SMILES notation. Converted amounts (≈) assume the structure as drawn. Where two headings read alike, the source gives them in different places.

The target of assay [1] is T1, microsomal Δ-9 fatty acid desaturase (Saccharomyces cerevisiae, UniProt P21147).
T1 sequence (P21147 1-510): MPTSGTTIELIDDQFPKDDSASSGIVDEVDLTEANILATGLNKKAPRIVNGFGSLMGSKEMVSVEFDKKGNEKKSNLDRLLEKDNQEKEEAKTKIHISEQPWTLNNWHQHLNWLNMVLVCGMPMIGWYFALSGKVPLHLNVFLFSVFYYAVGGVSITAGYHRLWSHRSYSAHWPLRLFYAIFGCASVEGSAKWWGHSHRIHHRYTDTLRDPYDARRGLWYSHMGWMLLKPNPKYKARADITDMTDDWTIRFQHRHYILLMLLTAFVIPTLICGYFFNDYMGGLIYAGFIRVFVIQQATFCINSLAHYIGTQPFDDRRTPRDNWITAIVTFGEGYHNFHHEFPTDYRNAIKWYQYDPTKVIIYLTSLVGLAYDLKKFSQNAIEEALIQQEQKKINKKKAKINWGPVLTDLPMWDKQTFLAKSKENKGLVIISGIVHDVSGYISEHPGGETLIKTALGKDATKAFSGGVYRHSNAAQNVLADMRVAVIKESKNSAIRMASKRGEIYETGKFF
Nature of the assay: Inhibition of Δ-9 fatty acid desaturase (desaturation of 14C-palmitoyl-CoA to 14C-palmitoleic acid). Conditions: I50, concentration inhibiting production of palmitoleic acid by 50%; yeast microsomes, 30° C., 5 min.

Assay [2] relates to Pyricularia oryzae (PYRIOR). The assay is described as follows: microbe, parasite or virus in culture. In kind it is cell-based. Conditions: 72 h, read-out: EC50 PYRIOR.
Assay [3] concerns Colletotrichum lagenarium (COLLLA). Nature of the assay: Activity towards plant pathogenic fungi, growth inhibition in microtiter plates. As to conditions: Colletotrichum orbiculare, 72 h, read-out: EC50 COLLLA. In kind it is cell-based.
A further assay relates to Candida albicans. Nature of the assay: microbe, parasite or virus in culture. The class given is cell-based.
The mark [4] stands for this setting: 50% inhibition of growth, 25° C., NepheloStar plate reader.

`CCCCCCCC#CCn1nc(-c2ccc(Cl)cn2)ccc1=O`: the IC50 (usually the concentration at which inhibition is half-maximal) in assay [1] is 78.5 nM.

Take `CCC#CCn1nc(-c2ccc(Br)cn2)ccc1=O`: in assay [1], the IC50 is less than 123 nM.

In turn, `CCCCOCC#CCn1nc(-c2ccc(Cl)cn2)ccc1=O` gave an IC50 in assay [1] of 27.1 nM.

`CCCCOCCC#CCn1nc(-c2ccc(Cl)cn2)ccc1=O` showed an IC50 in assay [1] of 52 nM.

`CCCOCCCC#CCn1nc(-c2ccc(Cl)cn2)ccc1=O` showed an IC50 in assay [1] of 28.9 nM.

In turn, `CCCOCCOCC#CCn1nc(-c2ccc(Cl)cn2)ccc1=O` had an IC50 in assay [1] of 108 nM.

`C=CC#CCn1nc(-c2ccc(Cl)cn2)ccc1=O` showed an IC50 in assay [1] of 58.9 nM.

As for `CCC#CCn1nc(-c2ncc(Br)cn2)ccc1=O`, the IC50 in assay [1] is 3790 nM.

In assay [1], `CCCCCCCC#CCn1nc(-c2ncc(Br)cn2)ccc1=O` gave an IC50 of 87.3 nM.

Take `CCCCCCOCC#CCn1nc(-c2ncc(Br)cn2)ccc1=O`: in assay [1], inhibition was half-maximal at 39.5 nM (IC50).

With `CCC#CCn1nc(-c2ccc(C(F)(F)F)cn2)ccc1=O`, the EC50 (commonly the concentration at which the effect is half-maximal) in assay [2] is 0.674 µg/mL (≈ 2.19 µM); in assay [3] (setting [4]), 0.758 µg/mL (≈ 2.47 µM).

As for `CCC#CCN1N=C(c2cc(Cl)ccn2)CCC1=O`, the EC50 in assay [2] came to 5.52 µg/mL (≈ 20 µM); in assay [3] (setting [4]) it was 5.75 µg/mL (≈ 20.9 µM).

In the case of `CCC#CCN1N=C(c2ccc(Cl)cn2)CCC1=O`, the EC50 in assay [2] is 0.021 µg/mL (≈ 0.0762 µM); in assay [3] (setting [4]) it was 0.194 µg/mL (≈ 0.704 µM).

Regarding `CCC#CCN1N=C(c2ccc(Cl)c(Cl)n2)CCC1=O`, the EC50 in assay [2] amounted to 0.031 µg/mL (≈ 0.0999 µM); in assay [3] (setting [4]) it was 0.036 µg/mL (≈ 0.116 µM).

In the case of `CCC#CCn1nc(-c2ccc(F)c(F)n2)ccc1=O`, the EC50 in assay [2] stood at 0.163 µg/mL (≈ 0.592 µM); in assay [3] (setting [4]), 0.181 µg/mL (≈ 0.658 µM).

In assay [1], `CCC#CCn1nc(-c2ccc(Cl)cn2)ccc1=O` [drawing 70] showed an IC50 of 121 nM.

The compound `CCCCCOCC#CCn1nc(-c2ccc(Cl)cn2)ccc1=O` [drawing 72] showed an IC50 in assay [1] of 23.1 nM.

Consider `CCCCCCCOCC#CCn1nc(-c2ccc(Cl)cn2)ccc1=O` [drawing 76], for which the IC50 in assay [1] was 45.5 nM.

With `CCCCOCCOCC#CCn1nc(-c2ccc(Cl)cn2)ccc1=O` [drawing 77], the IC50 in assay [1] was 176 nM.

With `CCC(C)CCOCC#CCn1nc(-c2ccc(Cl)cn2)ccc1=O` (stereo not shown) [drawing 79], in assay [1], the midpoint of inhibition, the IC50, lay at 422 nM.

In assay [1], `CCCCCCCOCC#CCn1nc(-c2ccc(Cl)cn2)ccc1=O` [drawing 80] showed an IC50 of 72.2 nM.

On to `O=c1ccc(-c2ccc(Cl)cn2)nn1CC#CC1CC1` [drawing 82], for which the IC50 in assay [1] is 472 nM.

In turn, `CCC#CCN1N=C(c2cccc(Cl)n2)CCC1=O` [drawing 83] gave an IC50 in assay [1] of more than 145000 nM.

As for `CCC#CCn1nc(-c2cccc(Cl)n2)ccc1=O` [drawing 84], the IC50 in assay [1] is 61400 nM.

The compound `CCC#CCn1nc(-c2ccc(Cl)c(Cl)n2)ccc1=O` [drawing 85] gave an IC50 in assay [1] of 263 nM.

In the case of `CCC#CCN1N=C(c2ncccc2Cl)CCC1=O` [drawing 86], in assay [1], the IC50 is more than 145000 nM.

In turn, `CCC#CCn1nc(-c2ncccc2Cl)ccc1=O` [drawing 87] registered an IC50 in assay [1] of more than 146000 nM.

In assay [1], `CCC#CCN1N=C(c2ncc(Cl)cc2Cl)CCC1=O` [drawing 88] returned an IC50 of more than 129000 nM.

The compound `CCC#CCn1nc(-c2ncc(Cl)cc2Cl)ccc1=O` [drawing 89] had an IC50 in assay [1] of more than 130000 nM.

For the compound `CC(C)(C)C#C/C=C/Cn1nc(-c2ccc(Cl)cn2)ccc1=O` [drawing 90], the IC50 in assay [1] was more than 122000 nM.

Turning to `CCC#CCN1N=C(c2nc(Cl)c(Cl)cc2Cl)CCC1=O` [drawing 91], the IC50 in assay [1] is more than 116000 nM.

In assay [1], `CCC#CCn1nc(-c2ccc(Cl)c(F)n2)ccc1=O` [drawing 92] gave an IC50 of 99.4 nM.

Regarding `CCC#CCn1nc(-c2ccc(Cl)cn2)ccc1=O` [drawing 96], the EC50 was determined as 0.0474 µg/mL (≈ 0.173 µM) in assay [2] and 0.113 µg/mL (≈ 0.413 µM) in assay [3] (setting [4]).

As for `CCCCCOCC#CCn1nc(-c2ccc(Cl)cn2)ccc1=O` [drawing 98], the EC50 in assay [2] was determined as 0.192 µg/mL (≈ 0.555 µM); in assay [3] (setting [4]), 0.007 µg/mL (≈ 0.0202 µM).

For `CCCCOCCOCC#CCn1nc(-c2ccc(Cl)cn2)ccc1=O` [drawing 99], the results for the EC50 in assay [2] and in assay [3] (setting [4]) were 0.05 µg/mL (≈ 0.133 µM) and 0.033 µg/mL (≈ 0.0878 µM), respectively.

`CCC(C)CCOCC#CCn1nc(-c2ccc(Cl)cn2)ccc1=O` (stereo not shown) [drawing 100]: the EC50 in assay [2] is 0.284 µg/mL (≈ 0.789 µM); in assay [3] (setting [4]), 1.16 µg/mL (≈ 3.22 µM).

For the compound `O=c1ccc(-c2ccc(Cl)cn2)nn1CC#CC1CC1` [drawing 101], the EC50 was determined as 0.062 µg/mL (≈ 0.217 µM) in assay [2] and 0.092 µg/mL (≈ 0.322 µM) in assay [3] (setting [4]).

On to `CCC#CCN1N=C(c2cccc(Cl)n2)CCC1=O` [drawing 103], for which the EC50 was determined as 1.01 µg/mL (≈ 3.66 µM) in assay [2] and 3.4 µg/mL (≈ 12.3 µM) in assay [3] (setting [4]).

With `CCC#CCn1nc(-c2cccc(Cl)n2)ccc1=O` [drawing 105], the EC50 in assay [2] worked out at 1.4 µg/mL (≈ 5.11 µM); in assay [3] (setting [4]), 1 µg/mL (≈ 3.65 µM).

In the case of `CCC#CCn1nc(-c2ccc(Cl)c(Cl)n2)ccc1=O` [drawing 106], the EC50 is 0.0371 µg/mL (≈ 0.12 µM) in assay [2] and 0.0537 µg/mL (≈ 0.174 µM) in assay [3] (setting [4]).

For `CCC#CCN1N=C(c2ncccc2Cl)CCC1=O` [drawing 108], the values for the EC50 in assay [2] and in assay [3] (setting [4]) were 33 µg/mL (≈ 120 µM) and more than 40 µg/mL, respectively.

`CCC#CCn1nc(-c2ncccc2Cl)ccc1=O` [drawing 109]: the half-maximal effective concentration (EC50) in assay [2] and in assay [3] (setting [4]) was more than 40 µg/mL each time.

As to `CCC#CCN1N=C(c2ncc(Cl)cc2Cl)CCC1=O` [drawing 110], the EC50 in assay [2] was 3.47 µg/mL (≈ 11.2 µM); in assay [3] (setting [4]) it was 8 µg/mL (≈ 25.8 µM).

Consider `CCC#CCn1nc(-c2ncc(Cl)cc2Cl)ccc1=O` [drawing 111], for which the EC50 in assay [2] was determined as 4.42 µg/mL (≈ 14.3 µM); in assay [3] (setting [4]), 13.6 µg/mL (≈ 44.1 µM).

Consider `CC(C)(C)C#C/C=C/Cn1nc(-c2ccc(Cl)cn2)ccc1=O` [drawing 112], for which the EC50 is 8.11 µg/mL (≈ 24.7 µM) in assay [2] and more than 40 µg/mL in assay [3] (setting [4]).

Consider `CCC#CCN1N=C(c2nc(Cl)c(Cl)cc2Cl)CCC1=O` [drawing 113], for which the results for the EC50 in assay [2] and in assay [3] were 5.75 µg/mL (≈ 16.7 µM) and 8.71 µg/mL (≈ 25.3 µM), respectively.

For `CCC#CCn1nc(-c2ccc(Cl)c(F)n2)ccc1=O` [drawing 114], the EC50 is 0.0236 µg/mL (≈ 0.0809 µM) in assay [2] and 0.048 µg/mL (≈ 0.165 µM) in assay [3] (setting [4]).

Regarding `CCC#CCn1nc(-c2ccc(Cl)cn2)ccc1=O` [drawing 116], the EC50 in the assay on Candida albicans came to 0.091 µg/mL (≈ 0.332 µM).

Regarding `CCCCCOCC#CCn1nc(-c2ccc(Cl)cn2)ccc1=O` [drawing 117], the EC50 in the assay with Candida albicans (Candida albicans, 48 h) was 0.176 µg/mL (≈ 0.509 µM).

In the assay on Candida albicans, `CCC#CCn1nc(-c2ccc(Cl)cn2)ccc1=O` [drawing 118] registered an EC50 of 0.210 µg/mL (≈ 0.767 µM).
